Laboratory results reported in PMC8744835, “Sterically Hindered Quaternary Phosphonium Salts (QPSs): Antimicrobial Activity and Hemolytic and Cytotoxic Properties” (International Journal of Molecular Sciences, 2021).

What was measured:
[1] = tested on: Candida albicans ATCC 10231; experiment: Fungicidal activity, serial dilution technique; format: cell-based; conditions: average of three ± SD, - means non-active; for MIC: read-out: Minimum Inhibitory Concentration (MIC), Ca
Protocol: (§1) The synthesized compounds were tested for antimicrobial activity against a number of Gram-positive bacteria, Staphylococcus aureus (Sa), Bacillus cereus (Bc) and Enterococcus faecalis (Ef), and Gram-negative bacteria, Escherichia coli (Ec) and Pseudomonas aeruginosa (Pa), including the methicillin-resistant strains S. aureus MRSA-1 (resistant to fluoroquinolones and beta-lactams) and MRSA-2 (resistant to beta-lactams). The methicillin-resistant strains S. aureus were transferred by the Republican Clinical Hospital of the Republic of Tatarstan (Kazan). The fungicidal activity against Candida albicans (Ca) and Trichophyton mentagrophytes var. gypseum (Tm) was studied. These pathogens were chosen because they are the most widespread in the food industry and the healthcare system.
(§2) The antimicrobial activity of the QPSs was determined using the serial dilution technique in Mueller–Hinton Broth 2. The cultures used for testing included the Gram-positive bacteria Staphylococcus aureus ATCC 6538P FDA 209P, Enterococcus faecalis ATCC 2921 and Bacillus cereus ATCC 10702 NCTC 8035, the Gram-negative bacteria Escherichia coli ATCC 25922 and Pseudomonas aeruginosa ATCC 9027, and the fungi Trichophyton mentagrophytes var. gypseum 1773 and Candida albicans ATCC 10231; methicillin-resistant strains of S. aureus MRSA were obtained from hospital patients with chronic tonsillitis (MRSA-1) and sinusitis (MRSA-2) in the Republican Clinical Hospital (Kazan, Russia). Ciprofloxacin and ketoconazole were purchased from Sigma-Aldrich. The bacterial load was 3.0 × 10^5 cfu/mL. The results were recorded every 24 h for 5 days. The cultures were incubated at 37 °C. The experiment was repeated three times. […] The minimum inhibitory concentration (MIC) was defined as the minimum concentration of a compound that inhibits the growth of the corresponding test micro-organism. The growth of bacteria as well as the absence of growth due to the bacteriostatic action of a compound was recorded.

[2] = tested on: Trichophyton mentagrophytes var. gypseum 1773; experiment: Fungicidal activity, serial dilution technique; format: cell-based; conditions: Tm, average of three ± SD, - means non-active; for MBC / MIC: Trichophyton mentagrophytes; for MBC: read-out: Minimum Bactericidal and Fungicidal Concentration (MBC, MFC), Tm; for MIC: read-out: Minimum Inhibitory Concentration (MIC), Tm
Protocol: as §1, §2

[3] = tested on: Pseudomonas aeruginosa ATCC 9027; experiment: Antimicrobial activity, serial dilution technique in Mueller–Hinton Broth 2; format: cell-based; conditions: average of three ± SD, - means non-active; for MBC / MIC: Pseudomonas aeruginosa, ATCC9027, Pa; for MBC: read-out: Minimum Bactericidal and Fungicidal Concentration (MBC, MFC), Pa; for MIC: read-out: Minimum Inhibitory Concentration (MIC), Pa
Protocol: as §1
as §2, with “Ciprofloxacin and ketoconazole were purchased from Sigma-Aldrich.” left out

[4] = tested on: Escherichia coli ATCC 25922; experiment: as above; format: cell-based; conditions: average of three ± SD, - means non-active; for MIC: Escherichia coli, ATCC25922, Ec, read-out: Minimum Inhibitory Concentration (MIC), Ec
Protocol: as §1
as §2, with “Ciprofloxacin and ketoconazole were purchased from Sigma-Aldrich.” left out

[5] = tested on: Enterococcus faecalis ATCC 2921; experiment: as above; format: cell-based; conditions: average of three ± SD, - means non-active
Protocol: as §1
as §2, with “Ciprofloxacin and ketoconazole were purchased from Sigma-Aldrich.” left out

[6] = tested on: Bacillus cereus ATCC 10702 NCTC 8035; experiment: as above; format: cell-based; conditions: average of three ± SD, - means non-active; for MIC / MBC: Bacillus cereus, Bc; for MIC: read-out: Minimum Inhibitory Concentration (MIC), Bc; for MBC: read-out: Minimum Bactericidal and Fungicidal Concentration (MBC, MFC), Bc
Protocol: as §1
as §2, with “Ciprofloxacin and ketoconazole were purchased from Sigma-Aldrich.” left out

[7] = tested on: Staphylococcus aureus ATCC 6538P FDA 209P; experiment: as above; format: cell-based; conditions: average of three ± SD, - means non-active; for MIC / MBC: Staphylococcus aureus, Sa; for MIC: read-out: Minimum Inhibitory Concentration (MIC), Sa; for MBC: read-out: Minimum Bactericidal and Fungicidal Concentration (MBC, MFC), Sa
Protocol: as §1
as §2, with “Ciprofloxacin and ketoconazole were purchased from Sigma-Aldrich.” left out

[8] = tested on: Escherichia coli ATCC 25922; experiment: as above; format: cell-based; conditions: average of three ± SD, - means non-active; for MBC: Escherichia coli, ATCC25922, Ec, read-out: Minimum Bactericidal and Fungicidal Concentration (MBC, MFC), Ec
[9] = tested on: methicillin-resistant S. aureus MRSA-2; experiment: as above; format: cell-based, Staphylococcus aureus; conditions: - means non-active; for MIC / Minimum Inhibitory Concentration (MIC), MRSA-2: MRSA-2 (resistant to beta-lactams); for MIC: read-out: Minimum Inhibitory Concentration (MIC), MRSA-2
Protocol: as §1
as §2, with “Ciprofloxacin and ketoconazole were purchased from Sigma-Aldrich.” left out

[10] = tested on: methicillin-resistant S. aureus MRSA-1; experiment: as above; format: cell-based, Staphylococcus aureus; conditions: - means non-active; for MIC / MBC: Staphylococcus aureus, MRSA; for MIC / Minimum Inhibitory Concentration (MIC), MRSA-1: MRSA-1 (resistant to fluoroquinolones and beta-lactams); for MIC: read-out: Minimum Inhibitory Concentration (MIC), MRSA-1; for MBC / Minimum Bactericidal and Fungicidal Concentration (MBC, MFC), MRSA-1: MRSA-1; for MBC: read-out: Minimum Bactericidal and Fungicidal Concentration (MBC, MFC), MRSA-1
Protocol: as §1
as §2, with “Ciprofloxacin and ketoconazole were purchased from Sigma-Aldrich.” left out

[11] = Candida albicans, ATCC10231, Ca

| SMILES | Minimum Bactericidal and Fungicidal Concentration (MBC, MFC), Ca [1] | MIC [1, 11] | MBC [2] | MIC [2] | Minimum Inhibitory Concentration (MIC), Pa [3] | MBC [3] | Minimum Inhibitory Concentration (MIC), Ef [5] | Minimum Bactericidal and Fungicidal Concentration (MBC, MFC), Bc [6] | Minimum Bactericidal and Fungicidal Concentration (MBC, MFC), Sa [7] | Minimum Bactericidal and Fungicidal Concentration (MBC, MFC), MRSA-2 ([9]; MRSA-2) | MIC ([9]; Staphylococcus aureus, MRSA) | MIC [10] | Minimum Bactericidal and Fungicidal Concentration (MBC, MFC), Tm [2] | Minimum Inhibitory Concentration (MIC), Tm [2] | Minimum Inhibitory Concentration (MIC), Ec [4] | Minimum Bactericidal and Fungicidal Concentration (MBC, MFC), Ef [5] | Minimum Inhibitory Concentration (MIC), Bc [6] | Minimum Inhibitory Concentration (MIC), Sa [7] | Minimum Bactericidal and Fungicidal Concentration (MBC, MFC), Ec [8] | Minimum Bactericidal and Fungicidal Concentration (MBC, MFC), MRSA-1 [10] | also measured |
| --- | --- | --- | --- | --- | --- | --- | --- | --- | --- | --- | --- | --- | --- | --- | --- | --- | --- | --- | --- | --- | --- |
| CCCCCCCCCCCCC[P+](C(C)(C)C)(C(C)(C)C)C(C)(C)C [Compound 13a, tri-tert-butyl(n-tridecyl)phosphonium] | 31.3 ± 2.2 µg/mL | 15.6 ± 1.2 µg/mL | 125 ± 10 µg/mL | 125 ± 10 µg/mL | 15.6 ± 1.3 µg/mL | 31.3 ± 2.4 µg/mL | 3.9 ± 0.3 µg/mL | 7.8 ± 0.6 µg/mL | 0.5 ± 0.04 µg/mL | 0.5 ± 0.03 µg/mL | 0.3 ± 0.02 µg/mL | 0.5 ± 0.04 µg/mL | – | – | – | – | – | – | – | – | MIC [4]: 3.9 ± 0.02 µg/mL; MBC ([5]; Enterococcus faecalis, ATCC2921, Ef, read-out: Minimum Bactericidal and Fungicidal Concentration (MBC, MFC), Ef): 7.8 ± 0.6 µg/mL; MIC [6]: 0.9 ± 0.07 µg/mL; MIC [7]: 0.2 ± 0.01 µg/mL; MBC [8]: 3.9 ± 0.2 µg/mL; MBC [10]: 0.3 ± 0.02 µg/mL |
| CCCCCCCCCCCCC[P+](C(C)(C)C)(C(C)(C)C)C(C)(C)C [Compound 13b] | 7.8 ± 0.6 µg/mL | – | – | – | 31.3 ± 2.3 µg/mL | – | 1.9 ± 0.1 µg/mL | 31.3 ± 2.3 µg/mL | 0.2 ± 0.01 µg/mL | 3.9 ± 0.3 µg/mL | – | – | 62.5 ± 5.3 µg/mL | 62.5 ± 5.2 µg/mL | 7.8 ± 0.6 µg/mL | 3.9 ± 0.3 µg/mL | 0.5 ± 0.04 µg/mL | 0.2 ± 0.01 µg/mL | 7.8 ± 0.6 µg/mL | 0.5 ± 0.03 µg/mL | Minimum Inhibitory Concentration (MIC), Ca [1]: 7.8 ± 0.5 µg/mL; Minimum Bactericidal and Fungicidal Concentration (MBC, MFC), Pa [3]: 31.3 ± 2.2 µg/mL; Minimum Inhibitory Concentration (MIC), MRSA-2 [9]: 0.3 ± 0.01 µg/mL; Minimum Inhibitory Concentration (MIC), MRSA-1 [10]: 0.3 ± 0.02 µg/mL |
| CCCCCCCCCCCCCC[P+](C(C)(C)C)(C(C)(C)C)C(C)(C)C [Compound 14a] | – | 7.8 ± 0.6 µg/mL | – | – | – | 125 ± 11 µg/mL | 1.9 ± 0.1 µg/mL | – | – | 62.5 ± 5.3 µg/mL | 0.5 ± 0.04 µg/mL | 0.5 ± 0.03 µg/mL | 125 ± 10 µg/mL | 125 ± 11 µg/mL | – | 3.9 ± 0.2 µg/mL | 7.8 ± 0.6 µg/mL | 1.9 ± 0.2 µg/mL | 1.9 ± 0.1 µg/mL | 7.8 ± 0.6 µg/mL | MBC ([1]; Candida albicans, ATCC10231, Ca, read-out: Minimum Bactericidal and Fungicidal Concentration (MBC, MFC), Ca): 15.6 ± 1.2 µg/mL; MIC [3]: 15.6 ± 1.1 µg/mL; MIC [4]: 1.9 ± 0.1 µg/mL; MBC [6]: 15.6 ± 1.3 µg/mL; MBC [7]: 1.9 ± 0.1 µg/mL |
| CCCCCCCCCCCCCC[P+](C(C)(C)C)(C(C)(C)C)C(C)(C)C [Compound 14b] | 15.6 ± 1.2 µg/mL | – | – | – | 7.8 ± 0.6 µg/mL | – | 0.9 ± 0.08 µg/mL | 15.6 ± 1.2 µg/mL | 1.9 ± 0.1 µg/mL | 0.5 ± 0.03 µg/mL | – | – | 15.6 ± 1.3 µg/mL | 15.6 ± 1.3 µg/mL | 1.9 ± 0.1 µg/mL | 1.9 ± 0.1 µg/mL | 0.9 ± 0.07 µg/mL | 0.1 ± 0.008 µg/mL | 3.9 ± 0.2 µg/mL | 0.5 ± 0.03 µg/mL | Minimum Inhibitory Concentration (MIC), Ca [1]: 3.9 ± 0.3 µg/mL; Minimum Bactericidal and Fungicidal Concentration (MBC, MFC), Pa [3]: 62.5 ± 5.4 µg/mL; Minimum Inhibitory Concentration (MIC), MRSA-2 [9]: 0.3 ± 0.02 µg/mL; Minimum Inhibitory Concentration (MIC), MRSA-1 [10]: 0.3 ± 0.01 µg/mL |
| CCCCCCCCCCCCCCC[P+](C(C)(C)C)(C(C)(C)C)C(C)(C)C [Compound 15a] | 3.9 ± 0.2 µg/mL | 1.9 ± 0.1 µg/mL | 62.5 ± 5.7 µg/mL | 62.5 ± 5.3 µg/mL | – | 7.8 ± 0.6 µg/mL | – | – | – | – | 0.5 ± 0.04 µg/mL | 0.5 ± 0.02 µg/mL | – | – | 1.9 ± 0.1 µg/mL | 1.9 ± 0.1 µg/mL | – | – | – | – | MIC [3]: 7.8 ± 0.7 µg/mL; MIC ([5]; Enterococcus faecalis, ATCC2921, Ef, read-out: Minimum Inhibitory Concentration (MIC), Ef): 0.5 ± 0.03 µg/mL; MBC [6]: 15.6 ± 1.3 µg/mL; MIC [6]: 0.5 ± 0.03 µg/mL; MBC [7]: 0.5 ± 0.03 µg/mL; MIC [7]: 0.2 ± 0.01 µg/mL; MBC [8]: 3.9 ± 0.2 µg/mL; MBC ([9]; Staphylococcus aureus, MRSA, MRSA-2, read-out: Minimum Bactericidal and Fungicidal Concentration (MBC, MFC), MRSA-2): 0.5 ± 0.03 µg/mL; MBC [10]: 0.5 ± 0.04 µg/mL |
